US6878736B1, “Histamine H3 receptor ligands” (James Black Foundation Limited, priority 1998, dated 2005)
Structures can show the parent of a compound that is named as a salt.

How the values were obtained:
[1] = target: T1, Histamine H3 receptor (Cavia porcellus, UniProt Q9JI35); experiment: Histamine H3 radioligand binding assay, guinea pig cortex ([3H]-R-α-methylhistamine); details: guinea pig cortex membranes, competition with 1 nM [3H]-R-α-methylhistamine; for Ki: read-out: pKi (Guinea pig cortex) (converted)
T1 sequence (Q9JI35 whole entry): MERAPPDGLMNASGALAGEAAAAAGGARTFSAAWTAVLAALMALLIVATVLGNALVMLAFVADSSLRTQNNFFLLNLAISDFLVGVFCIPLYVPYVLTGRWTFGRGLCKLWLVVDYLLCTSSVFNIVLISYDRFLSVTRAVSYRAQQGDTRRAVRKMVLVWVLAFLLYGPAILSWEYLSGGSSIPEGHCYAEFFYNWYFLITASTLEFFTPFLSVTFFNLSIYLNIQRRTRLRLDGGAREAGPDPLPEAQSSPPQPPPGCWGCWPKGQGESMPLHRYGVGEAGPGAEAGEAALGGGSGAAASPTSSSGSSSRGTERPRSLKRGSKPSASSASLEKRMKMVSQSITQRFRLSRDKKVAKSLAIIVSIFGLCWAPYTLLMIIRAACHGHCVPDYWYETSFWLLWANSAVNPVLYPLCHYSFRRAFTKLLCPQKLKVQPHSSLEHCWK
Method in brief: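 Male Dunkin Hartley guinea pig cortical membranes incubated 165 min at 21±3 °C in 20 mM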

[2] = target: T1, Histamine H3 receptor; experiment: Histamine H3 functional assay, guinea pig ileum (ileal longitudinal muscle, myenteric plexus); parameters: species or system tissue; details: antagonist affinity from rightward shift of R-(α)-methylhistamine E/[A] curves (Schild), typical variance ±0.15 log units; for Kb: read-out: pKb (Guinea pig ileum) (converted)
Experimental: • 1. J. Med. Chem 1994, 314. • 2. WO 97/29092 Histamine H3 Functional Assay—Guinea Pig Ileum
The biological activity of the compounds of the examples was measured using the ileal longitudinal muscle, myenteric plexus assay described by Paton and Aboo Zar (J. Physiol. 1968, 194, 13-33). Male Dunkin-Hartley guinea pigs (250-300 g) were employed. Briefly, a 50 cm portion of ileum proximal to the caecum was removed, after discarding the terminal 20 cm. Ileal segments (3 cm) were cleaned by passing Krebs-Henseleit buffer containing 3 μM mepyramine gently through the ileum using a Pasteur pipette (size: 13.8 cm length, 0.65 cm diameter). To avoid unnecessary damage to the tissue, Krebs-Henseleit buffer was passed through the ileal segment, while it was lying horizontally on a petri dish. Therefore, the ileum was not over-distended and the buffer flowed through with ease. Each segment was then passed over a Pasteur pipette and the longitudinal muscle layer and adhering myenteric plexus was teased away using moist cotton wool, by stroking tangentially away from the mesenteric attachment. The tissues were suspended in 20 ml organ baths containing Krebs-Henseleit buffer at 37±1° C. and gassed with […]. The tissues were ligated to two parallel stainless steel wires, situated between two platinum electrodes (0.76 cm length, 0.06 cm diameter). All measurements were recorded isometrically (Grass FTO3 transducer). Following an initial loading tension of 1 g, the tissues were stimulated with electrical pulses at a frequency of 0.1 Hz and a pulse duration of 0.5 msec, as described by Kosterlitz & Watt (Br. J. Pharmacol. 1968, 266276). Initially, the tissues were stimulated at supramaximal (1.3 fold times maximal) voltage for a period of 30 min and then the tissues were washed and re-stimulated. A “sighter dose” of the selective histamine H3-receptor agonist, R-(α)-methylhistamine (0.3 μM) (Arrang et al. Nature, 1987, 117-123), was administered. Upon generation of response, the “sighter dose” was removed from the tissues by “washout” (6 washes over 60 min) and during this period the electrical stimulation was switched off. The tissues were then re-stimulated and allowed to stabilise prior to the addition of drug treatments, which were allocated on a randomised block basis to the organ baths. Following the incubation period, a single cumulative E/[A] curve was obtained. The experimental E/[A] curve data was expressed as the percentage inhibition of the peak height of electrically-stimulated contraction. Antagonist affinity values were calculated from the degree of rightward shift of the R-(α)-methylhistamine E/[A] curves using Schild's methods (Arunlakshana & Schild Br. J. Pharmacol. 1959, 48-58). Typical variance in this assay is ±0.15 log units.

| Compound | Ki [1] [µM] | Kb [2] [µM] | pKi (Guinea pig cortex) [1] | pKb (Guinea pig ileum) [2] | pKi (Guinea pig cortex) ([1]; bis-hydrochloride) |
| --- | --- | --- | --- | --- | --- |
| N=C(NCCCCCN1CCCC1)NCc1ccccc1 [Example 47, N-Benzyl-N′-(5-pyrrolidin-1-yl-pentyl)-guanidine bis-hydrochloride] | 0.00398 | 0.0501 | – | – | – |
| Cc1ccccc1CNC(=N)NCCCCCN1CCCC1 [Example 48, N-(2-Methylbenzyl)-N′-(5-pyrrolidin-1-yl-pentyl)-guanidine bis-hydrochloride] | 0.00316 | 0.0251 | – | – | – |
| C[C@H](NC(=N)NCCCCCN1CCCC1)c1ccccc1 [Example 49, N-(1(S)-Phenyl-ethyl)-N′-(5-pyrrolidin-1-yl-pentyl)-guanidine bis-hydrochloride] | 0.00631 | 0.0316 | – | – | – |
| CN(Cc1ccccc1)C(=N)NCCCCCN1CCCC1 [Example 50, N-Benzyl-N-methyl-N′-(5-pyrrolidin-1-yl-pentyl)-guanidine bis-hydrochloride] | 0.0158 | 0.316 | – | – | – |
| N=C(NCCCCCN1CCCC1)N1CCc2ccccc2C1 [Example 51, N-(5-Pyrrolidin-1-yl-pentyl)-3,4-dihydro-1H-isoquinoline-2-carboxamidine bis-hydrochloride] | 0.00794 | 0.1 | – | – | – |
| N=C(NCc1ccc(Cl)cc1)N(CCCCN1CCCC1)Cc1ccc(Cl)cc1 [Example 52, N,N′-Bis-(4-Chlorobenzyl)-N-(4-pyrrolidin-1-yl-butyl)-guanidine bis-hydrochloride] | 0.316 | 0.316 | – | – | – |
| N=C(NCCCCCN1CCCC1)NCc1ccc2ccccc2c1 [Example 53, N-(Naphthalen-2-yl-methyl)-N′-(5-pyrrolidin-1-yl-pentyl)guanidine bis-hydrochloride] | 0.00794 | 0.0794 | – | – | – |
| Cl.Cl.N=C(NCCCCN1CCCC1)NCc1ccc(-c2ccccc2)cc1 [Example 54, N-Biphenyl-4-yl-methyl-N′-(4-pyrrolidin-1-yl-butyl)-guanidine bis-hydrochloride] | – | – | 7.3 | 7.1 | – |
| N=C(NCCCCN1CCCC1)NCc1ccc(C2CCCCC2)cc1 [Example 56, N-(4-Cyclohexylbenzyl)-N′-(4-pyrrolidin-1-yl-butyl)-guanidine bis-hydrochloride] | 0.02 | 0.0631 | – | – | – |
| N=C(NCCCCCN1CCCC1)NCC1CCCCO1 (centres unmarked) [Example 58, N-(5-Pyrrolidin-1-yl-pentyl)-N′-(tetrahydro-pyran-2-yl-methyl)-guanidine bis-hydrochloride] | 0.00316 | 0.2 | – | – | – |
| Cl.Cl.N=C(NCCOCCN1CCCC1)NCC12CC3CC(CC(C3)C1)C2 [Example 59, N-Adamantan-1-yl-methyl-N′-(2-(2-pyrrolidin-1-yl-ethoxy)-ethyl)-guanidine bis-hydrochloride] | – | – | 8.0 | 7.0 | – |
| Cl.Cl.N=C(NCCCCCN1CCCCC1)NCC12CC3CC(CC(C3)C1)C2 [Example 60, N-Adamantan-1-yl-methyl-N′-(5-piperidin-1-yl-pentyl)-guanidine bis-hydrochloride] | – | – | 8.0 | 8.1 | – |
| Cl.Cl.N=C(NCCCCCN1CCCCCC1)NCC12CC3CC(CC(C3)C1)C2 [Example 61, N-Adamantan-1-yl-methyl-N′-(5-azepan-1-yl-pentyl)-guanidine bis-hydrochloride] | – | – | 8.1 | 7.8 | – |
| Cl.Cl.N=C(NCCCCCN1CCCCCCC1)NCC12CC3CC(CC(C3)C1)C2 [Example 62, N-Adamantan-1-yl-methyl-N′-(5-azocan-1-yl-pentyl)-guanidine bis-hydrochloride] | – | – | 7.5 | 7.4 | – |
| CN1CCN(CCCCCNC(=N)NCC23CC4CC(CC(C4)C2)C3)CC1.Cl.Cl.Cl [Example 63, N-Adamantan-1-yl-methyl-N′-(5-(4-methyl-piperazin-1-yl)-pentyl)-guanidine tris-hydrochloride] | – | – | 7.7 | 7.4 | – |
| CNC(=NCCCN1CCCC1)NCc1ccc(Cl)cc1 [Example 64, N-(4-Chlorobenzyl)-N′-methyl-N″-(3-pyrrolidin-1-yl-propyl)-guanidine] | 0.0631 | 0.631 | – | – | – |
| CCCCNC(=N)NCCCCCN1CCCC1 [Example 65, N-Butyl-N′-(5-pyrrolidin-1-yl-pentyl)-guanidine] | 0.00501 | 0.0794 | – | – | – |

| Compound | Ki [1] [µM] | Kb [2] [µM] | pKi (Guinea pig cortex) [1] | pKb (Guinea pig ileum) [2] | pKi (Guinea pig cortex) ([1]; bis-hydrochloride) |
| --- | --- | --- | --- | --- | --- |
| CC(C)CCNC(=N)NCCCCCN1CCCC1 [Example 66] | 0.00251 | 0.0398 | – | – | – |
| CCC(C)CNC(=N)NCCCCCN1CCCC1 (centres unmarked) [Example 67, N-(2-Methyl-butyl)-N′-(5-pyrrolidin-1-yl-pentyl)-guanidine bis-hydrochloride] | 0.00251 | 0.0501 | – | – | – |
| N=C(N)N(CCCCCN1CCCC1)Cc1ccc(Cl)cc1 [Example 69, N-(4-Chlorobenzyl)-N-(5-pyrrolidin-1-yl-pentyl)-guanidine bis-hydrochloride] | 0.001 | 0.0126 | – | – | – |
| N=C(N)N(CCCCCCN1CCCC1)Cc1ccc(Cl)cc1 [Example 70, N-(4-Chlorobenzyl)-N-(6-pyrrolidin-1-yl-hexyl)-guanidine bis-hydrochloride] | 0.00501 | 0.00398 | – | – | – |
| N=C(N)N(CCCCCCN1CCCCC1)Cc1ccc(Cl)cc1 [Example 72, N-(4-Chlorobenzyl)-N-(6-piperidin-1-yl-hexyl)-guanidine bis-hydrochloride] | 0.00501 | 0.00316 | – | – | – |
| N=C(N)N(CCCCCCN1CCCC1)Cc1ccccc1 [Example 73, N-Benzyl-N-(6-pyrrolidin-1-yl-hexyl)-guanidine bis-hydrochloride] | 0.00158 | 0.0158 | – | – | – |
| N=C(N)N(CCCCCCN1CCCC1)Cc1ccc(Br)cc1 [Example 74, N-(4-Bromobenzyl)-N-(6-pyrrolidin-1-yl-hexyl)-guanidine bis-hydrochloride] | 0.00794 | 0.0126 | – | – | – |
| C[C@@H](c1ccccc1)N(CCCCCN1CCCC1)C(=N)N [Example 75, N-(1-(S)-Phenyl-ethyl)-N-(5-pyrrolidin-1-yl-pentyl)-guanidine bis-hydrochloride] | 0.0251 | 0.126 | – | – | – |
| Cc1ccccc1CN(CCCCCCN1CCCC1)C(=N)N [Example 76, N-(2-Methylbenzyl)-N-(6-pyrrolidin-1-yl-hexyl)-guanidine bis-hydrochloride] | 0.00158 | 0.00794 | – | – | – |
| Cl.Cl.N=C(NCCCCCCN1CCCC1)NCC12CC3CC(CC(C3)C1)C2 [Example 77, N-Adamantan-1-yl-methyl-N-(6-pyrrolidin-1-yl-hexyl)-guanidine bis-hydrochloride] | – | – | – | 8.0 | 8.2 |
| N=C(N)N(CCCCCCN1CCCC1)CCC12CC3CC(CC(C3)C1)C2 [Example 78, N-(2-Adamantan-1-yl-ethyl)-N-(6-pyrrolidin-1-yl-hexyl)-guanidine bis-hydrochloride] | 0.0794 | 0.0316 | – | – | – |
| O=S(=O)(NCCN1CCCC1)c1ccc2ccccc2c1 [Example 81, N-(2-Pyrrolidin-1-yl-ethyl)-2-naphthalenesulfonamide] | 0.126 | 1.26 | – | – | – |
| O=S(=O)(NCCCN1CCCC1)c1ccc2ccccc2c1 [Example 82, N-(3-Pyrrolidin-1-yl-propyl)-2-naphthalenesulfonamide] | 0.316 | 1 | – | – | – |
| O=S(=O)(NCCCCN1CCCC1)c1ccc2ccccc2c1 [Example 83, N-(4-Pyrrolidin-1-yl-butyl)-2-naphthalenesulfonamide] | 0.251 | 0.631 | – | – | – |
| O=S(=O)(NCCN1CCCCC1)c1ccc2ccccc2c1 [Example 84, N-(2-Piperidin-1-yl-ethyl)-2-naphthalenesulfonamide] | 0.501 | 0.794 | – | – | – |
| O=S(=O)(CCCCN1CCCC1)c1ccc2ccccc2c1 [Example 88] | 0.631 | 1.26 | – | – | – |
| CN1CCCC1CCNS(=O)(=O)c1ccc2ccccc2c1 (centres unmarked) [Example 89, N-(2-(1-Methyl-pyrrolidin-2-yl)-ethyl)-2-naphthalenesulfonamide] | 0.1 | 0.631 | – | – | – |
